Assay results from patent US20240355418A1, “MULTIPLEX, TEMPORALLY RESOLVED MOLECULAR SIGNAL RECORDER AND RELATED METHODS” (University of Washington, priority 2021, published 2024).
Where “and” joins values, the source holds several entries; their conditions need not be identical. Equal entries are not always repeated.

How the values were obtained:
Assay type in all cases: cell-based
HEK293T cells [1] = test: DNA Typewriter: sequential prime editing of integrated TAPE-1 arrays, pegRNA pool + PE2, amplicon sequencing; settings: for Overall editing rate: reads exhibiting any editing, of all reads: pegRNA pool + PE2, four days
Text: To test this idea, DNA Tape (“TAPE-1”) was designed by modifying a spacer sequence previously shown to be highly amenable to prime editing by the PE2 enzyme (HEK293 target 3 or HEK3). In TAPE-1, a 3-bp key (GGA) is followed by one tandem array of a 14-bp monomer (TGATGGTGAGCACG) (SEQ ID NO: 57) that includes the PAM sequence (TGG) at positions 4-6. At the 5′-most end of the TAPE-1 array, the key sequence, the first 14-bp monomer, and the first 6 bases of the subsequent 14-bp monomer, collectively comprise an intact 20-bp spacer and PAM (FIG. 1A). A set of 16 pegRNAs was further designed to target TAPE-1, with each pegRNA programming a distinct 5-bp insertion (FIG. 1B). The first 2-bp of the insertion is unique to each of the 16 pegRNAs. The remaining 3-bp of the insertion corresponds to the key (GGA). The inventors reasoned that when a pegRNA/PE2-mediated insertion occurred at the active TAPE-1 site, it would: (1) record the identity of the pegRNA via the 2-bp portion of the insertion; (2) inactivate the current active site by disrupting its sequence; and (3) activate the next monomer along the array, as the newly inserted GGA key, together with the subsequent […], creates an intact 20-bp spacer and PAM. In the next iteration of genome editing, a pegRNA-mediated insertion to the second monomer would be recorded while also moving the type-guide to the third monomer, and then to the fourth, the fifth, and so on (FIG. 1C).
TAPE-1 arrays were synthesized and cloned with varying numbers of monomer units (2×TAPE-1, 3×TAPE-1, 5×TAPE-1), and stably integrated these arrays into the genome of HEK293T cells via the piggyBAC system. The resulting cells were transiently transfected with a pool of plasmids designed to express PE2 (pCMV-PE2-P2A-GFP; Addgene #132776) and sixteen pegRNAs, each programmed to insert an NNGGA barcode to TAPE-1, and harvested them after four days. The TAPE-1 region was PCR-amplified from genomic DNA and sequenced.
For each TAPE-1 array, the sequencing reads were categorized into those in which: (1) no editing occurred; (2) the observed pattern was consistent with sequential, directional editing; or (3) the observed pattern was inconsistent with sequential, directional editing (FIG. 1D-F; Table 1). […] However, within the set of reads showing edits, the data were overwhelmingly consistent with sequential, directional editing. For example, with 2×TAPE-1, the second monomer was edited in 22.8±1.7% of reads in which the first monomer was also edited (FIG. 1D). In contrast, the second monomer was only edited in 0.6% of reads in which the first monomer was not edited. […] Data obtained from 3×TAPE-1 and 5×TAPE-1 were also consistent with sequential genome editing. For example, 98.5% (3×TAPE-1) and 99.0% (5×TAPE-1) of reads that were edited at the second monomer were also edited at the first monomer, while 97.6% (3×TAPE-1) and 98.8% (5×TAPE-1) of reads that were edited at the third monomer were also edited at the first and second monomers (FIG. 1E-1F).
Table 1. Read counts and editing efficiencies for 2×TAPE-1, 3×TAPE-1, and 5×TAPE-1. Sequencing reads were grouped based on the observed editing pattern. For example, reads from 2×TAPE-1 array were categorized into four groups: (A) no edit at either TAPE-1 site (‘OO’); (B) 5-bp insertion at the first TAPE-1 site only (‘XO’); (C) 5-bp insertion at the second TAPE-1 site only (‘OX’); or (D) 5-bp insertions at both TAPE-1 sites (‘XX’). For reads from 5×TAPE-1 array, editing groups were simplified by categorizing directional and iterative editing pattern (OOOOO, XO, XXO, XXXO, XXXXO, and XXXXX) and the erroneous editing patterns (OX, NOX, NNOX, and NNNOX, where N can be either O or X). Editing efficiencies at each site were calculated as the fraction of reads with an edit at the site over the total number of reads in which the site had been activated via insertion of the ‘key’ that completed the spacer sequence. […]

iPE2(+) HEK293T = test: Monoclonal lineage tracing, TargetBC-5×TAPE-1 arrays, sc-RNA-seq; settings: after 25 days of editing, Dox
Text: The ordered manner in which edits accrue with DNA Typewriter, the use of a prime editor with a Cas9 nickase to insert one of many possible “symbols” at the type-guide, the predefined sequences and locations of potential edits, and the fact that one-and-only-one monomer is an active type-guide at any given moment, have the potential to address all of these limitations at once. […] First, a HEK293T cell line that expresses doxycycline (Dox)-inducible PE2 (iPE2(+) HEK293T) was constructed. A lentiviral construct was designed and cloned that includes: (1) the 5×TAPE-1 sequence, associated with a random 8-bp barcode region (TargetBC) at its 5′-end; (2) a transcription cassette for the TargetBC-5×TAPE-1 with a reverse transcription capture sequence for enrichment during sc-RNA-seq; and (3) a constitutive pegRNA expression cassette that targets TAPE-1 for a 6-bp insertion (NNNGGA; referred to below as InsertBC; GGA is the key sequence for TAPE-1) (FIG. 4A). Lentiviral transduction of this construct to the cell line at a high multiplicity of infection (MOI) was followed by serial dilution to isolate a monoclonal cell line that grew from 1 cell to ˜1.2M cells via ˜20 doublings over 25 days in the presence of Dox (FIG. 4B; FIG. 10A). After harvesting, sc-RNA-seq was used to recover and sequence multiple TargetBC-5×TAPE-1 arrays from each of ˜12,000 cells. […]

HEK293T cells [2] = test: Screen of 48 3×TAPE constructs: efficiency and sequential error rate; settings: for Sequential error rate (in words): 48 tested tapes
Protocol: In each of these 48 constructs, a 3×TAPE region was accompanied by a pegRNA-expressing cassette designed to target it with a 4-6 bp insertion (16 possible 2-bp barcodes followed by a 2-4 bp key sequence). HEK293T cells were transiently transfected with PE2-encoding plasmid and a pool of 48 pegRNA-by-3×TAPE constructs and harvested them after four days. The 3×TAPE region was PCR-amplified from genomic DNA and sequenced.
Two quantities were calculated for each 3×TAPE array: (1) efficiency, calculated by summing all edited reads and dividing by the total number of reads; and (2) sequential error rate, calculated by summing all edited reads inconsistent with sequential, directional editing and dividing by the total number of edited reads (FIG. 7B). […] Indeed, across the full experiment, a longer key sequence was associated with a lower sequential error rate (FIG. 7C). […] Performance characteristics were highly consistent when the experiment was repeated with integration rather than transient transfection of the constructs (FIG. 7E).

[3] = 5-bp insertions, conditional on site activated, per replicate, listed as 3xTAPE-1
[4] = 5-bp insertions, conditional on site activated, per replicate, listed as 5xTAPE-1
[5] = 6-bp ins., per replicate, listed as 5xTAPE-1

In the case of “2×TAPE-1: TAPE-1 array with two monomers, SEQ ID NO: 58 (DNA GGATGATGGTGAGCACGTGATGGTGAGCACGTGATGGTGAGC; listed as DNA, chemistry not fully specified; the letters are possibly those of the target site)”, the “Second monomer edited, in reads in which the first monomer was also edited” value (HEK293T cells [1]) is reported as 22.8±1.7%, the “Second monomer edited, in reads in which the first monomer was not edited” value (HEK293T cells [1]) is reported as 0.6% and the “Editing efficiencies: Site 2” value (HEK293T cells [1]; 5-bp insertions, conditional on site activated, per replicate, listed as 2xTAPE-1) is reported as 0.211 and 0.244 and 0.229. The “Editing efficiencies: Site 1” value (HEK293T cells [1]; 5-bp insertions, fraction of reads edited at the site over reads in which the site was activated, per transfection replicate, listed as 2xTAPE-1) was 0.053 and 0.044 and 0.043 and the “Overall editing rate: reads exhibiting any editing, of all reads” value (“Overall editing rate” for short) (HEK293T cells [1]) was 4.7±0.5%.

In the case of “TAPE-1: DNA Tape: 3-bp key GGA and tandem array of 14-bp monomer TGATGGTGAGCACG, from HEK3; SEQ ID NO: 2 (DNA GGATGATGGTGAGCACGTGATGGTGAGCACG; listed as DNA, chemistry not fully specified; the letters are possibly those of the target site)”, the “Fifth sites edited (mean)” value (iPE2(+) HEK293T) is reported as 19.7%, the “First sites of active arrays edited (mean)” value (iPE2(+) HEK293T) is reported as 96.8% and the “Sequential error rate (in words)” value (HEK293T cells [2]) is reported as “one of the lowest sequential error rates among the 48 tested tapes”. For the same molecule, the “Editing rate of the first TAPE-1 monomer” value (HEK293T cells [1]; PE2 and pegRNAs) was ~6% and the “Editing rates of the second or third monomers, conditional on preceding monomers already edited” value (HEK293T cells [1]; PE2 and pegRNAs) was ~20%.

In the case of “TAPE-6: DNA Tape design from HEK3 with 4-bp key, SEQ ID NO: 7 (DNA GGACTGATGGTGAGACGTGATGGTGAGACG; listed as DNA, chemistry not fully specified; the letters are possibly those of the target site)”, the “Sequential error rate (in words)” value (HEK293T cells [2]) is reported as “lower sequential error rate than TAPE-1”.

For “3×TAPE-1: TAPE-1 array with three monomers, SEQ ID NO: 59 (DNA GGATGATGGTGAGCACGTGATGGTGAGCACGTGATGGTGAGCACGTGATGGTGAGC; listed as DNA, chemistry not fully specified; the letters are possibly those of the target site)”, the “Reads edited at the second monomer that were also edited at the first monomer” value (HEK293T cells [1]) was 98.5%, the “Reads edited at the third monomer that were also edited at the first and second monomers” value (HEK293T cells [1]) was 97.6% and the “Editing efficiencies: Site 2” value (HEK293T cells [1]; [3]) was 0.237 and 0.231 and 0.240. For the same molecule, the “Editing efficiencies: Site 3” value (HEK293T cells [1]; [3]) was 0.170 and 0.189 and 0.221, the “Editing efficiencies: Site 1” value (HEK293T cells [1]; 5-bp insertions, fraction of reads edited at the site over reads in which the site was activated, per transfection replicate, listed as 3xTAPE-1) was 0.059 and 0.051 and 0.047 and the “Overall editing rate” value (HEK293T cells [1]) was 5.2±0.6%.

In the case of “TAPE-27: DNA Tape design, FANCF-based spacer, SEQ ID NO: 32 (DNA GAGATCCGGTCTGCAGCATCCGGTCTGCAGC; listed as DNA, chemistry not fully specified; the letters are possibly those of the target site)”, the “Greater efficiency than TAPE-1” value (HEK293T cells [2]; 3×TAPE) is reported as “over 50%” and the “Greater sequential error rate than TAPE-1” value (HEK293T cells [2]; 3×TAPE) is reported as 2 fold.

B1: 5×TAPE-1: TAPE-1 array with five monomers, SEQ ID NO: 60 (nucleic acid)
DNA: GGATGATGGTGAGCACGTGATGGTGAGCACGTGATGGTGAGCACGTGATGGTGAGCACGTGATGGTGAGCACGTGATGGTGAGC
modifications: listed as DNA, chemistry not fully specified; the letters are possibly those of the target site
In the case of B1, the “Reads edited at the second monomer that were also edited at the first monomer” value (HEK293T cells [1]) is reported as 99.0%, the “Reads edited at the third monomer that were also edited at the first and second monomers” value (HEK293T cells [1]) is reported as 98.8% and the “Editing efficiencies: Site 2” value (HEK293T cells [1]; [4]) is reported as 0.210 and 0.212 and 0.206. For the same molecule, the “Editing efficiencies: Site 3” value (HEK293T cells [1]; [4]) was 0.151 and 0.144 and 0.154, the “Editing efficiencies: Site 4” value (HEK293T cells [1]; [4]) was 0.129 and 0.119 and 0.150 and the “Editing efficiencies: Site 5” value (HEK293T cells [1]; [4]) was 0.098 and 0.194 and 0.175. The “Editing efficiencies: Site 1” value (HEK293T cells [1]; 5-bp insertions, fraction of reads edited at the site over reads in which the site was activated, per transfection replicate, listed as 5xTAPE-1) was 0.066 and 0.059 and 0.051, the “Editing efficiencies: Site 1” value (HEK293T cells [1]; [5]) was 0.055 (2×) and 0.057 and the “Editing efficiencies: Site 2” value (HEK293T cells [1]; [5]) was 0.180 and 0.177 and 0.181. For the same molecule, the “Editing efficiencies: Site 3” value (HEK293T cells [1]; [5]) was 0.083 and 0.078 and 0.089, the “Editing efficiencies: Site 4” value (HEK293T cells [1]; [5]) was 0.099 and 0.059 and 0.265 and the “Editing efficiencies: Site 5” value (HEK293T cells [1]; [5]) was 0.364 and 0.900 and 0.000. For the same molecule, the “Overall editing rate” value (HEK293T cells [1]) was 5.9±0.8%.
